What was measured:
[1] = Stability in Simulated Intestinal Fluid (SIF); type: in vitro ADME; settings: SIF:acetonitrile 9:1, 0.01 mg/mL, 37° C.
Protocol: (§1) Stability in Simulated Gastric Fluid (SGF) and Simulated Intestinal Fluid (SIF). Procedure from Baudy et. al. (J. Med. Chem. 2009, 52, 771-778) used. The physiological stability of pro-drugs was determined by examining the stability of the compound in SGF, and SIF at 37° C. The compounds were prepared in a 9:1 mixture of the appropriate test component (SGF, SIF) and acetonitrile to a final concentration of 0.01 mg/mL. The samples were thoroughly mixed and maintained at 37° C. Each sample was injected consecutively onto an Agilent 1100 system (Luna C18, 3 μm, 50 mm×3 mm; 1 mL/min; mobile phase of 0.1% trifluoroacetic acid in water/0.1% trifluoroacetic acid in acetonitrile) after a 3 h period. The percent remaining of pro-drug was calculated by comparing the area of pro-drug compound versus riluzole generated. The identities of the parent compounds and conversion products were confirmed by LC/MS.

[2] = Metabolic stability in pooled mouse liver microsomes; type: in vitro ADME; settings: mouse liver microsomes 0.5 mg/mL, 1 uM, NADPH, 37° C.
Protocol: (§2) Metabolic Stability: In vitro metabolic stability was determined in pooled mouse or human liver microsomes (BD Gentest) at a protein concentration of 0.5 mg/mL in reaction buffer (100 mM KH2PO4, pH 7.4 and 12 mM MgCl2). Each drug candidate was added to a final concentration of 1 uM. This mixture was pre-warmed to 37° C. for 10 minutes prior to starting the reaction with the addition of β-Nicotinamide adenine dinucleotide 2′-phosphate reduced (NADPH) to a final concentration of 1 mM. A parallel incubation lacking NADPH served as the control. After incubation for 30 min at 37° C., the reactions were quenched by the addition of acetonitrile containing 0.1% formic acid and internal standard, vortex mixed for 2 minutes and centrifuged at 4000 rpm for 10 minutes to pellet the precipitated protein. The resulting supernatant containing the drug candidate and its potential metabolites was diluted 5-fold with water containing 0.1% formic acid and submitted to LC-MS/MS analysis. […]
(§3) LC-MS/MS Analysis: An aliquot from each incubation was analyzed by LC-MS/MS with SRM detection in the positive ionization mode using an ABSciex API 5500 QTrap Mass Spectrometer interfaced via the ABSciex Turbo V IonSpray source (ESI) to an Eksigent ExpressHT LC system. […] A fast gradient, from 15 to 85% organic in 2.5 minutes, with run time of 5.0 minutes, and flow rate of 50 uL/min was utilized. Peak areas were integrated using MultiQuant v2.0 software from ABSciex.

[3] = Plasma stability in fresh human plasma; type: in vitro ADME; settings: 1 uM, 37° C.
Protocol: (§4) Plasma Stability: Assessment of plasma stability was carried out by individual incubations of drug candidates in fresh mouse or human control plasma at a concentration of 1 uM for 1 hour at 37° C. After which, the samples were de-proteinized by addition of 2 volumes of acetonitrile containing 0.1% formic acid and internal standard, vortex mixed for 2 minutes and centrifuged at 4000 rpm for 10 minutes to pellet precipitated protein. The resulting supernatant containing the drug candidates was diluted 5-fold with water containing 0.1% formic acid and submitted to LC-MS/MS analysis. All determinations were done in triplicate. […]
as §3

[4] = Metabolic stability in pooled human liver microsomes; type: in vitro ADME; settings: human liver microsomes 0.5 mg/mL, 1 uM, NADPH, 37° C.
Protocol: as §2, §3

[5] = Stability in Simulated Gastric Fluid (SGF); type: in vitro ADME; settings: SGF:acetonitrile 9:1, 0.01 mg/mL, 37° C.
Protocol: as §1

[6] = Plasma stability in fresh mouse plasma; type: in vitro ADME; settings: 1 uM, 37° C.
Protocol: as §4, §3

[7] = tested on: amyotrophic lateral sclerosis (ALS) patients; settings: after 1.5 years of treatment; cited from earlier work

Row | Structure (SMILES) | SIF (3 hours), percent of pro-drug metabolized to riluzole [1] [%] | Metabolic Stability mouse (30 minutes), percent of pro-drug metabolized to riluzole [2] [%] | Plasma Stability Human (1 hour), percent of pro-drug metabolized to riluzole [3] [%] | Metabolic Stability human (30 minutes), percent of pro-drug metabolized to riluzole [4] [%] | SGF (3 hours), percent of pro-drug metabolized to riluzole [5] [%] | Plasma Stability mouse (1 hour), percent of pro-drug metabolized to riluzole [6] [%] | increase of lifespan [7]
1 | CN(C)CCCOC(=O)Nc1nc2ccc(OC(F)(F)F)cc2s1 [Cpd 19, (6-Trifluoromethoxy-benzothiazol-2-yl)-carbamic acid 3-dimethylamino-propyl ester] | 0 | 71 | 0 | 0 | 0 | 0 | –
2 | O=C(O)CCC(=O)Nc1nc2ccc(OC(F)(F)F)cc2s1 [Cpd 20, N-(6-Trifluoromethoxy-benzothiazol-2-yl)-succinamic acid] | 0 | 70 | 16 | 0 | 0 | 0 | –
3 | COC(=O)CCC(=O)Nc1nc2ccc(OC(F)(F)F)cc2s1 [Cpd 21, N-(6-Trifluoromethoxy-benzothiazol-2-yl)-succinamic acid methyl ester] | 0 | 77 | 25 | 34 | 3 | 99 | –
4 | CC(C)(C)OC(=O)CCC(=O)Nc1nc2ccc(OC(F)(F)F)cc2s1 [Cpd 22, N-(6-Trifluoromethoxy-benzothiazol-2-yl)-succinamic acid tert-butyl ester] | 0 | 0 | 0 | 21 | 0 | 0 | –
5 | O=C(CCC(=O)Nc1nc2ccc(OC(F)(F)F)cc2s1)NCc1cccnc1 [Cpd 23, N-Pyridin-3-ylmethyl-N′-(6-trifluoromethoxy-benzothiazol-2-yl)-succinamide] | 10 | 0 | 0 | 4 | 0 | 26 | –
6 | CNCCCCC(=O)Nc1nc2ccc(OC(F)(F)F)cc2s1 [Cpd 25, 5-Methylamino-pentanoic acid (6-trifluoromethoxy-benzothiazol-2-yl)-amide] | 0 | 78 | 0 | 0 | 0 | 0 | –
7 | NCCCCC(=O)Nc1nc2ccc(OC(F)(F)F)cc2s1 [Cpd 26, 5-Amino-pentanoic acid (6-trifluoromethoxy-benzothiazol-2-yl)-amide] | 0 | 66 | 5 | 19 | 0 | 0 | –
8 | O=C(Cc1ccccc1[N+](=O)[O-])Nc1nc2ccc(OC(F)(F)F)cc2s1 [Cpd 27, 2-(2-Nitro-phenyl)-N-(6-trifluoromethoxy-benzothiazol-2-yl)-acetamide] | 0 | 59 | 13 | 22 | 0 | 0 | –
9 | Nc1ccc(C(=O)Nc2nc3ccc(OC(F)(F)F)cc3s2)cc1 [Cpd 28, 4-Amino-N-(6-trifluoromethoxy-benzothiazol-2-yl)-benzamide] | 0 | 24 | 0 | 80 | 0 | 0 | –
10 | Nc1nc2ccc(OC(F)(F)F)cc2s1 [riluzole, 6-(trifluoromethoxy)-1,3-benzothiazol-2-amine] | – | – | – | – | – | – | 2-3 months

Source: US12343347B2 (Biohaven Pharmaceutical Holding Company Ltd., priority 2012, dated 2025)
